# Experimental data as given in the NIST ThermoML archive (doi:10.1021/je800046k).
# Numbers after ± are expanded uncertainties.
# Legend:
# [1] = for surface tension liquid-gas: Pendant drop shape; for mass density: 101 kPa, Liquid
# [2] = xn = mol fraction of the nth substance listed; conditions: for surface tension liquid-gas: Pendant drop shape; for mass density: 101 kPa, Liquid
compound,measurement,setting,value
"Cc1ccc(C)c(C)c1 [1,2,4-trimethylbenzene]",surface tension liquid-gas,[1]; 298.15 K,29.3 ± 0.33 mN/m
same,mass density,[1]; 298.15 K,871.71 ± 0.54 kg/m3
same,surface tension liquid-gas,[1]; 308.15 K,28.24 ± 0.32 mN/m
same,mass density,[1]; 308.15 K,863.68 ± 0.56 kg/m3
same,surface tension liquid-gas,[1]; 313.15 K,27.71 ± 0.31 mN/m
same,mass density,[1]; 313.15 K,859.58 ± 0.56 kg/m3
"Cc1ccc(C)c(C)c1 [1,2,4-trimethylbenzene] + CC(=O)OCC(C)C",surface tension liquid-gas,"[2]; 298.15 K, x2 = 0",29.3 ± 0.33 mN/m
same,mass density,"[2]; 298.15 K, x2 = 0",871.71 ± 0.54 kg/m3
same,surface tension liquid-gas,"[2]; 308.15 K, x2 = 0",28.24 ± 0.32 mN/m
same,mass density,"[2]; 308.15 K, x2 = 0",863.68 ± 0.56 kg/m3
same,surface tension liquid-gas,"[2]; 313.15 K, x2 = 0",27.71 ± 0.31 mN/m
same,mass density,"[2]; 313.15 K, x2 = 0",859.58 ± 0.56 kg/m3
"Cc1cc(C)cc(C)c1 [1,3,5-trimethylbenzene]",surface tension liquid-gas,[1]; 298.15 K,28.05 ± 0.31 mN/m
same,mass density,[1]; 298.15 K,861.12 ± 0.41 kg/m3
same,surface tension liquid-gas,[1]; 308.15 K,27.21 ± 0.3 mN/m
same,mass density,[1]; 308.15 K,852.94 ± 0.42 kg/m3
same,surface tension liquid-gas,[1]; 313.15 K,26.78 ± 0.3 mN/m
same,mass density,[1]; 313.15 K,848.82 ± 0.43 kg/m3
"Cc1cc(C)cc(C)c1 [1,3,5-trimethylbenzene] + CC(=O)OCC(C)C",surface tension liquid-gas,"[2]; 298.15 K, x2 = 0",28.05 ± 0.31 mN/m
same,mass density,"[2]; 298.15 K, x2 = 0",861.12 ± 0.53 kg/m3
same,surface tension liquid-gas,"[2]; 308.15 K, x2 = 0",27.21 ± 0.3 mN/m
same,mass density,"[2]; 308.15 K, x2 = 0",852.94 ± 0.55 kg/m3
same,surface tension liquid-gas,"[2]; 313.15 K, x2 = 0",26.78 ± 0.3 mN/m
same,mass density,"[2]; 313.15 K, x2 = 0",848.82 ± 0.56 kg/m3
CC(=O)OC(C)C [1-methylethyl ethanoate],surface tension liquid-gas,[1]; 298.15 K,21.89 ± 0.25 mN/m
same,mass density,[1]; 298.15 K,866.25 ± 0.44 kg/m3
same,surface tension liquid-gas,[1]; 308.15 K,20.81 ± 0.24 mN/m
same,mass density,[1]; 308.15 K,854.54 ± 0.46 kg/m3
same,surface tension liquid-gas,[1]; 313.15 K,20.29 ± 0.24 mN/m
same,mass density,[1]; 313.15 K,848.61 ± 0.47 kg/m3
CC(=O)OC(C)C [1-methylethyl ethanoate] + Cc1cc(C)cc(C)c1,surface tension liquid-gas,"[2]; 298.15 K, x1 = 1",21.89 ± 0.25 mN/m
same,mass density,"[2]; 298.15 K, x1 = 1",866.25 ± 0.34 kg/m3
same,surface tension liquid-gas,"[2]; 308.15 K, x1 = 1",20.81 ± 0.24 mN/m
same,mass density,"[2]; 308.15 K, x1 = 1",854.54 ± 0.36 kg/m3
same,surface tension liquid-gas,"[2]; 313.15 K, x1 = 1",20.29 ± 0.24 mN/m
same,mass density,"[2]; 313.15 K, x1 = 1",848.61 ± 0.37 kg/m3
CC(=O)OC(C)C [1-methylethyl ethanoate] + Cc1ccc(C)c(C)c1,surface tension liquid-gas,"[2]; 298.15 K, x1 = 1",21.89 ± 0.25 mN/m
same,mass density,"[2]; 298.15 K, x1 = 1",866.25 ± 0.44 kg/m3
same,surface tension liquid-gas,"[2]; 308.15 K, x1 = 1",20.81 ± 0.24 mN/m
same,mass density,"[2]; 308.15 K, x1 = 1",854.54 ± 0.46 kg/m3
same,surface tension liquid-gas,"[2]; 313.15 K, x1 = 1",20.29 ± 0.24 mN/m
same,mass density,"[2]; 313.15 K, x1 = 1",848.61 ± 0.47 kg/m3
CC(=O)OCC(C)C [2-methylpropyl ethanoate],surface tension liquid-gas,[1]; 298.15 K,23.15 ± 0.35 mN/m
same,mass density,[1]; 298.15 K,866.06 ± 1.2 kg/m3
same,surface tension liquid-gas,[1]; 308.15 K,22.16 ± 0.33 mN/m
same,mass density,[1]; 308.15 K,855.51 ± 1.2 kg/m3
same,surface tension liquid-gas,[1]; 313.15 K,21.64 ± 0.33 mN/m
same,mass density,[1]; 313.15 K,850.16 ± 1.2 kg/m3
